Results on 33 molecules are retold here after the NIST ThermoML archive (doi:10.1016/j.fluid.2019.03.023).

± gives the expanded uncertainty stated by the source.

The data set can be described thus: activity coefficient (dimensionless); of the first substance listed, at infinite dilution; xn = mol fraction of the nth substance listed. The note with it: 101.33 kPa, Liquid, Chromatography, x1 = 0.

For the molecule `CCO` [ethanol] + CCCCCCCCCCCCCC[P+](CCCCCC)(CCCCCC)CCCCCC.N#C[N-]C#N, the activity coefficient runs as follows: (313.15 K) 0.339 ± 0.042; (323.15 K) 0.359 ± 0.043; (333.15 K) 0.383 ± 0.045; (343.15 K) 0.401 ± 0.047.

In the case of `Cc1cccc(C)c1` [1,3-dimethylbenzene] + CCCCCCCCCCCCCC[P+](CCCCCC)(CCCCCC)CCCCCC.N#C[N-]C#N, the activity coefficient is, setting by setting: (313.15 K) 0.633 ± 0.067; (323.15 K) 0.654 ± 0.069; (333.15 K) 0.689 ± 0.072; (343.15 K) 0.716 ± 0.075.

Consider `CCC(C)=O` [butanone] + CCCCCCCCCCCCCC[P+](CCCCCC)(CCCCCC)CCCCCC.N#C[N-]C#N, for which the activity coefficient by setting is: (313.15 K) 0.422 ± 0.048; (323.15 K) 0.448 ± 0.051; (333.15 K) 0.478 ± 0.053; (343.15 K) 0.513 ± 0.056.

Consider `O` [water] + CCCCCCCCCCCCCC[P+](CCCCCC)(CCCCCC)CCCCCC.N#C[N-]C#N, for which the activity coefficient (313.15 K) is 1.95 ± 0.2, the activity coefficient (323.15 K) is 1.82 ± 0.19, the activity coefficient (333.15 K) is 1.73 ± 0.18 and the activity coefficient (343.15 K) came to 1.6 ± 0.17.

`C1=CCCCC1` [cyclohexene] + CCCCCCCCCCCCCC[P+](CCCCCC)(CCCCCC)CCCCCC.N#C[N-]C#N: the activity coefficient amounted to 0.647 ± 0.068 (313.15 K), 0.709 ± 0.074 (323.15 K), 0.76 ± 0.079 (333.15 K) and 0.813 ± 0.084 (343.15 K).

Take `C=CCCCC` [hex-1-ene] + CCCCCCCCCCCCCC[P+](CCCCCC)(CCCCCC)CCCCCC.N#C[N-]C#N: the activity coefficient (313.15 K) was found to be 0.915 ± 0.093, the activity coefficient (323.15 K) worked out at 0.979 ± 0.1, the activity coefficient (333.15 K) was 1.06 ± 0.11 and the activity coefficient (343.15 K) was found to be 1.11 ± 0.11.

For `C1CCOC1` [tetrahydrofuran] + CCCCCCCCCCCCCC[P+](CCCCCC)(CCCCCC)CCCCCC.N#C[N-]C#N, the activity coefficient reads like this: (313.15 K) 0.351 ± 0.043; (323.15 K) 0.365 ± 0.044; (333.15 K) 0.384 ± 0.045; (343.15 K) 0.404 ± 0.047.

For the molecule `C#CCCC` [1-pentyne] + CCCCCCCCCCCCCC[P+](CCCCCC)(CCCCCC)CCCCCC.N#C[N-]C#N, the activity coefficient came out at 0.413 ± 0.048 (313.15 K), 0.465 ± 0.052 (323.15 K), 0.547 ± 0.059 (333.15 K) and 0.619 ± 0.066 (343.15 K).

Regarding `CCCCCCCCCC` [decane] + CCCCCCCCCCCCCC[P+](CCCCCC)(CCCCCC)CCCCCC.N#C[N-]C#N, the activity coefficient stood at 2.19 ± 0.23 (313.15 K), 2.34 ± 0.25 (323.15 K), 2.54 ± 0.27 (333.15 K) and 2.74 ± 0.29 (343.15 K).

As to `CC(C)=O` [acetone] + CCCCCCCCCCCCCC[P+](CCCCCC)(CCCCCC)CCCCCC.N#C[N-]C#N, the activity coefficient stood at 0.35 ± 0.043 (313.15 K), 0.363 ± 0.044 (323.15 K), 0.383 ± 0.045 (333.15 K) and 0.405 ± 0.047 (343.15 K).

Take `CCCCC` [pentane] + CCCCCCCCCCCCCC[P+](CCCCCC)(CCCCCC)CCCCCC.N#C[N-]C#N: the activity coefficient reads like this: (313.15 K) 1 ± 0.1; (323.15 K) 1.06 ± 0.11; (333.15 K) 1.12 ± 0.11; (343.15 K) 1.19 ± 0.12.

With `C=CCCCCCCCC` [1-decene] + CCCCCCCCCCCCCC[P+](CCCCCC)(CCCCCC)CCCCCC.N#C[N-]C#N, the activity coefficient turned out to be 1.58 ± 0.17 (313.15 K), 1.77 ± 0.18 (323.15 K), 1.98 ± 0.21 (333.15 K) and 2.19 ± 0.23 (343.15 K).

With `CCC(C)(C)C` [2,2-dimethylbutane] + CCCCCCCCCCCCCC[P+](CCCCCC)(CCCCCC)CCCCCC.N#C[N-]C#N, the activity coefficient (313.15 K) is 1.11 ± 0.11, the activity coefficient (323.15 K) stood at 1.2 ± 0.12, the activity coefficient (333.15 K) is 1.28 ± 0.13 and the activity coefficient (343.15 K) is 1.35 ± 0.14.

For the molecule `C#CCCCCC` [1-heptyne] + CCCCCCCCCCCCCC[P+](CCCCCC)(CCCCCC)CCCCCC.N#C[N-]C#N, the activity coefficient was 0.485 ± 0.054 (313.15 K), 0.57 ± 0.061 (323.15 K), 0.644 ± 0.068 (333.15 K) and 0.721 ± 0.075 (343.15 K).

With `CCCCCCC` [heptane] + CCCCCCCCCCCCCC[P+](CCCCCC)(CCCCCC)CCCCCC.N#C[N-]C#N, the activity coefficient amounted to 1.36 ± 0.14 (313.15 K), 1.43 ± 0.15 (323.15 K), 1.52 ± 0.16 (333.15 K) and 1.61 ± 0.17 (343.15 K).

On to `C=CCCC` [1-pentene] + CCCCCCCCCCCCCC[P+](CCCCCC)(CCCCCC)CCCCCC.N#C[N-]C#N, for which the activity coefficient by setting is: (313.15 K) 0.796 ± 0.082; (323.15 K) 0.858 ± 0.088; (333.15 K) 0.922 ± 0.094; (343.15 K) 0.994 ± 0.1.

As to `C1CCCCCCC1` [cyclooctane] + CCCCCCCCCCCCCC[P+](CCCCCC)(CCCCCC)CCCCCC.N#C[N-]C#N, the activity coefficient was 0.89 ± 0.091 (313.15 K), 0.928 ± 0.095 (323.15 K), 0.978 ± 0.099 (333.15 K) and 1.05 ± 0.11 (343.15 K).

For `C#CCCCC` [1-hexyne] + CCCCCCCCCCCCCC[P+](CCCCCC)(CCCCCC)CCCCCC.N#C[N-]C#N, the activity coefficient by setting is: (313.15 K) 0.442 ± 0.05; (323.15 K) 0.513 ± 0.056; (333.15 K) 0.593 ± 0.063; (343.15 K) 0.669 ± 0.07.

Consider `CCCO` [propan-1-ol] + CCCCCCCCCCCCCC[P+](CCCCCC)(CCCCCC)CCCCCC.N#C[N-]C#N, for which the activity coefficient came to 0.396 ± 0.046 (313.15 K), 0.41 ± 0.047 (323.15 K), 0.424 ± 0.049 (333.15 K) and 0.443 ± 0.05 (343.15 K).

As for `CCCCCCCCC` [nonane] + CCCCCCCCCCCCCC[P+](CCCCCC)(CCCCCC)CCCCCC.N#C[N-]C#N, the activity coefficient runs as follows: (313.15 K) 1.8 ± 0.19; (323.15 K) 1.93 ± 0.2; (333.15 K) 2.09 ± 0.22; (343.15 K) 2.24 ± 0.23.

For `CCCCO` [butan-1-ol] + CCCCCCCCCCCCCC[P+](CCCCCC)(CCCCCC)CCCCCC.N#C[N-]C#N, the activity coefficient is, setting by setting: (313.15 K) 0.421 ± 0.048; (323.15 K) 0.445 ± 0.05; (333.15 K) 0.453 ± 0.051; (343.15 K) 0.47 ± 0.052.

For `C1CCCCC1` [cyclohexane] + CCCCCCCCCCCCCC[P+](CCCCCC)(CCCCCC)CCCCCC.N#C[N-]C#N, the activity coefficient was 0.733 ± 0.076 (313.15 K), 0.78 ± 0.081 (323.15 K), 0.832 ± 0.085 (333.15 K) and 0.901 ± 0.092 (343.15 K).

Turning to `c1ccsc1` [thiophene] + CCCCCCCCCCCCCC[P+](CCCCCC)(CCCCCC)CCCCCC.N#C[N-]C#N, the activity coefficient turned out to be 0.372 ± 0.044 (313.15 K), 0.383 ± 0.045 (323.15 K), 0.412 ± 0.048 (333.15 K) and 0.429 ± 0.049 (343.15 K).

With `Cc1ccccc1` [toluene] + CCCCCCCCCCCCCC[P+](CCCCCC)(CCCCCC)CCCCCC.N#C[N-]C#N, the activity coefficient (313.15 K) amounted to 0.419 ± 0.048, the activity coefficient (323.15 K) is 0.458 ± 0.051, the activity coefficient (333.15 K) came out at 0.489 ± 0.054 and the activity coefficient (343.15 K) was 0.523 ± 0.057.

For the molecule `C=CCCCCCCC` [1-nonene] + CCCCCCCCCCCCCC[P+](CCCCCC)(CCCCCC)CCCCCC.N#C[N-]C#N, the activity coefficient was found to be 1.41 ± 0.15 (313.15 K), 1.53 ± 0.16 (323.15 K), 1.67 ± 0.17 (333.15 K) and 1.82 ± 0.19 (343.15 K).

Regarding `Cc1ccccc1C` [1,2-dimethylbenzene] + CCCCCCCCCCCCCC[P+](CCCCCC)(CCCCCC)CCCCCC.N#C[N-]C#N, the activity coefficient is, setting by setting: (313.15 K) 0.525 ± 0.057; (323.15 K) 0.566 ± 0.061; (333.15 K) 0.613 ± 0.065; (343.15 K) 0.651 ± 0.069.

With `Cc1ccc(C)cc1` [1,4-dimethylbenzene] + CCCCCCCCCCCCCC[P+](CCCCCC)(CCCCCC)CCCCCC.N#C[N-]C#N, the activity coefficient (313.15 K) is 0.602 ± 0.064, the activity coefficient (323.15 K) was found to be 0.64 ± 0.068, the activity coefficient (333.15 K) was found to be 0.68 ± 0.071 and the activity coefficient (343.15 K) stood at 0.706 ± 0.074.

Turning to `c1ccccc1` [benzene] + CCCCCCCCCCCCCC[P+](CCCCCC)(CCCCCC)CCCCCC.N#C[N-]C#N, the activity coefficient by setting is: (313.15 K) 0.319 ± 0.04; (323.15 K) 0.363 ± 0.044; (333.15 K) 0.403 ± 0.047; (343.15 K) 0.44 ± 0.05.

For the molecule `C=CCCCCC` [1-heptene] + CCCCCCCCCCCCCC[P+](CCCCCC)(CCCCCC)CCCCCC.N#C[N-]C#N, the activity coefficient by setting is: (313.15 K) 1.09 ± 0.11; (323.15 K) 1.13 ± 0.12; (333.15 K) 1.17 ± 0.12; (343.15 K) 1.22 ± 0.13.

As for `CO` [methanol] + CCCCCCCCCCCCCC[P+](CCCCCC)(CCCCCC)CCCCCC.N#C[N-]C#N, the activity coefficient reads like this: (313.15 K) 0.306 ± 0.04; (323.15 K) 0.323 ± 0.041; (333.15 K) 0.344 ± 0.042; (343.15 K) 0.361 ± 0.044.

For `CCCCCC` [hexane] + CCCCCCCCCCCCCC[P+](CCCCCC)(CCCCCC)CCCCCC.N#C[N-]C#N, the activity coefficient reads like this: (313.15 K) 1.16 ± 0.12; (323.15 K) 1.24 ± 0.13; (333.15 K) 1.32 ± 0.14; (343.15 K) 1.39 ± 0.14.

On to `CC#N` [acetonitrile] + CCCCCCCCCCCCCC[P+](CCCCCC)(CCCCCC)CCCCCC.N#C[N-]C#N, for which the activity coefficient came to 0.574 ± 0.062 (313.15 K), 0.6 ± 0.064 (323.15 K), 0.624 ± 0.066 (333.15 K) and 0.651 ± 0.069 (343.15 K).

Regarding `CCc1ccccc1` [ethylbenzene] + CCCCCCCCCCCCCC[P+](CCCCCC)(CCCCCC)CCCCCC.N#C[N-]C#N, the activity coefficient is, setting by setting: (313.15 K) 0.567 ± 0.061; (323.15 K) 0.606 ± 0.064; (333.15 K) 0.653 ± 0.069; (343.15 K) 0.7 ± 0.073.
